The values below are quoted from earlier work in patent publication US20180193334A1, “PHARMACEUTICAL COMPOSITION OF VORTIOXETINE OR SALT THEREOF, AND PREPARATION METHOD THEREFOR” (Changzhou Fangnan Pharmaceuticals, Ltd., priority 2015, published 2018).

Molecules are shown by their SMILES. Values after ≈ are worked out from the molar mass of the structure shown.

For the compound `Br.Cc1ccc(Sc2ccccc2N2CCNCC2)c(C)c1` [1-[2-(2,4-methylphenylthio)phenyl] piperazine hydrobromide], the solubility in water is 1200 µg/mL. In the case of `Cc1ccc(Sc2ccccc2N2CCNCC2)c(C)c1` [vortioxetine free base], the solubility in water was 100 µg/mL (≈ 335 µM).
